Test results as given in patent publication US20100256145A1, “USE OF KCNQ POTASSIUM CHANNEL OPENERS FOR REDUCING SYMPTOMS OF OR TREATING DISORDERS OR CONDITIONS WHEREIN THE DOPAMINERGIC SYSTEM IS DISRUPTED” (H. LUNDBECK A/S, priority 2007, published 2010).

Test system: sensitised amphetamine response (hyperactivity) in mice
Experiment: Sensitised behavioural response to amphetamine in mice
Format: in vivo
Settings: Mus musculus; amphetamine-pretreated mice; s.c. 30 min before D-amphetamine 1.25 mg/kg challenge; Std. Dev. in brackets; read-out: Inhibition of the sensitised amphetamine response, ED50
Method: Subjects. Male NMRI mice (Charles River) weighing approx. 35 g are used. […] 12 mice are used pr experimental group.
Experimental procedure. […] For the 17 days between the last day of pre-treatment and the test day, the animals are kept in their homecage receiving the care as described above. The experiment is performed under normal light conditions in an undisturbed room. The mice are treated with test substance or vehicle and placed individually in the test cages for 30 min. […] 5×8 infrared light sources and photocells interspaced by 4 cm monitor the locomotor activity. The light beams cross the cage 1.8 cm above the bottom of the cage.
Administration of compounds.
Data analyses. The total counts obtained in the 30 min test are averaged pr animal group and used for calculation of drug effects in the following manner: The average motility induced by an amphetamine challenge in amphetamine-pretreated animals is used as the sensitised response. The average motility induced by a vehicle challenge to vehicle-pretreated animals is used as a baseline motility response. […] Similarly an ED50 for inhibiting baseline motility is calculated by expressed the motility response in vehicle-pretreated, vehicle-challenged, drug-treated animals relative to the baseline motility response. A therapeutic index value is subsequently calculated by dividing the first ED50 by the second.

## Cc1nc(N2CCOCC2)nc(C)c1NC(=O)Cc1ccc(F)cc1 [N-(4,6-Dimethyl-2-morpholin-4-yl-pyrimidin-5-yl)-2-(4-fluoro-phenyl)-acetamide]
  ED50: 0.4 mg/kg
